What follows are molecules tested against T1, chymotrypsin-like activity of 20S proteasome (Bos taurus, UniProt Q2TBX6+Q32KL2) (assay: 20S proteasome chymotryptic activity inhibition assay (Suc-Leu-Leu-Val-Tyr-AMC cleavage)). Conditions: 2 μg 20S proteasome from bovine brain, 50 μM fluorogenic substrate, 15 minutes at 37° C., pH7.5.
T1 construct: was purified to homogeneity from bovine brain according to published methods; from tissue; host or cells: bovine brain
Type: biochemical
Procedure, shortened: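 Bovine brain 20S proteasome (2 μg) with inhibitor at 0.1-100 μg/ml in 50 mM HEPES, 0.1% SDS, pH7.5. Reaction started with 50 μM Suc-LLVY-AMC, run 15 min at 37° C, stopped with pH 4.0 acetate; liberated AMC read by fluorescence (EX 370 nm, EM 430 nm).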
`CC(C)CC(NC(=O)C(Cc1ccc(O)cc1)NC(=O)C(=O)Cc1c[nH]c2ccccc12)C(=O)NC(CC(=O)O)C(=O)O` (stereo not shown) [Compound 143] was tested, and the “IC50 for the inhibition of the chymotrypsin-like activity of 20S proteasome” value (“IC50 for the inhibition” below) was greater than 10 mg/L.
For `CC(C)CC(NC(=O)CCNC(=O)C(=O)Cc1c[nH]c2ccccc12)C(=O)NC(CCC(=O)O)C(=O)O` (stereo not shown) [Compound 150], the “IC50 for the inhibition” value was greater than 10 mg/L.
In the case of `CCCCC(NC(=O)C(=O)Cc1c[nH]c2ccccc12)C(=O)NC(CC(C)C)C(=O)NC(CCC(=O)O)C(=O)O` (stereo not shown) [Compound 151], the “IC50 for the inhibition” value is reported as greater than 10 mg/L.
In the case of `CC(C)CC(NC(=O)C(Cc1ccccc1)NC(=O)C(=O)Cc1c[nH]c2ccccc12)C(=O)NC(CCC(=O)O)C(=O)O` (stereo not shown) [Compound 152], the “IC50 for the inhibition” value is reported as greater than 10 mg/L.
In the case of `CC(C)CC(NC(=O)C(NC(=O)C(=O)Cc1c[nH]c2ccccc12)C(C)O)C(=O)NC(CCC(=O)O)C(=O)O` (stereo not shown) [Compound 153], the “IC50 for the inhibition” value is reported as greater than 10 mg/L.
With `CC(C)CC(NC(=O)C(C)NC(=O)C(=O)Cc1c[nH]c2ccccc12)C(=O)NC(CCC(=O)O)C(=O)O` (stereo not shown) [Compound 154] the “IC50 for the inhibition” value was greater than 10 mg/L.
With `CC(C)CC(NC(=O)C(CC(=O)O)NC(=O)C(=O)Cc1c[nH]c2ccccc12)C(=O)NC(CCC(=O)O)C(=O)O` (stereo not shown) [Compound 155] the “IC50 for the inhibition” value was greater than 10 mg/L.
In the case of `CC(C)CC(NC(=O)C(NC(=O)C(=O)Cc1c[nH]c2ccccc12)C(C)C)C(=O)NC(CCC(=O)O)C(=O)O` (stereo not shown) [Compound 156], the “IC50 for the inhibition” value is reported as greater than 10 mg/L.
`CCCC(NC(=O)C(=O)Cc1c[nH]c2ccccc12)C(=O)NC(CC(C)C)C(=O)NC(CCC(=O)O)C(=O)O` (stereo not shown) [Compound 157] was tested, and the “IC50 for the inhibition” value was greater than 10 mg/L.
For `CC(C)CC(NC(=O)C(Cc1ccc(O)cc1)NC(=O)C(=O)Cc1c[nH]c2ccccc12)C(=O)NC(CCC(=O)O)C(=O)O` (stereo not shown) [Compound 158], the IC50 was greater than 16.4 µM.
`CCC(C)C(NC(=O)C(=O)Cc1c[nH]c2ccccc12)C(=O)NC(CC(C)C)C(=O)NC(CCC(=O)O)C(=O)O` (stereo not shown) [Compound 159] was tested, and the “IC50 for the inhibition” value was greater than 10 mg/L.
`CC(C)CC(NC(=O)C(CC1CCCCC1)NC(=O)C(=O)Cc1c[nH]c2ccccc12)C(=O)NC(CCC(=O)O)C(=O)O` (stereo not shown) [Compound 160] was tested, and the “IC50 for the inhibition” value was greater than 10 mg/L.
With `CC(C)CC(NC(=O)C(Cc1cccnc1)NC(=O)C(=O)Cc1c[nH]c2ccccc12)C(=O)NC(CCC(=O)O)C(=O)O` (stereo not shown) [Compound 161] the “IC50 for the inhibition” value was greater than 10 mg/L.
`CC(C)CC(NC(=O)C(Cc1ccc2ccccc2c1)NC(=O)C(=O)Cc1c[nH]c2ccccc12)C(=O)NC(CCC(=O)O)C(=O)O` (stereo not shown) [Compound 162] was tested, and the “IC50 for the inhibition” value was greater than 10 mg/L.
`CC(C)CC(NC(=O)C(Cc1ccc(-c2ccccc2)cc1)NC(=O)C(=O)Cc1c[nH]c2ccccc12)C(=O)NC(CCC(=O)O)C(=O)O` (stereo not shown) [Compound 163] was tested, and the “IC50 for the inhibition” value was greater than 10 mg/L.
`CC(C)CC(NC(=O)C(Cc1ccc2ccccc2c1)NC(=O)C(=O)Cc1c[nH]c2ccccc12)C(=O)NC(C(=O)O)C(C)C` (stereo not shown) [Compound 164] was tested, and the “IC50 for the inhibition” value was greater than 10 mg/L.
In the case of `CC(C)CC(NC(=O)C(Cc1ccc(-c2ccccc2)cc1)NC(=O)C(=O)Cc1c[nH]c2ccccc12)C(=O)NC(C(=O)O)C(C)C` (stereo not shown) [Compound 165], the “IC50 for the inhibition” value is reported as greater than 10 mg/L.
For `CCC(C)C(NC(=O)C(=O)Cc1c[nH]c2ccccc12)C(=O)NC(CC(C)C)C(=O)NC(C(=O)O)C(C)C` (stereo not shown) [Compound 167], the “IC50 for the inhibition” value was greater than 10 mg/L.
`CC(C)CC(NC(=O)C(CC1CCCCC1)NC(=O)C(=O)Cc1c[nH]c2ccccc12)C(=O)NC(C(=O)O)C(C)C` (stereo not shown) [Compound 168] was tested, and the “IC50 for the inhibition” value was greater than 10 mg/L.
With `CC(C)CC(NC(=O)C(Cc1cccnc1)NC(=O)C(=O)Cc1c[nH]c2ccccc12)C(=O)NCC(=O)O` (stereo not shown) [Compound 169] the “IC50 for the inhibition” value was greater than 10 mg/L.
`CC(C)CC(NC(=O)C(Cc1ccc2ccccc2c1)NC(=O)C(=O)Cc1c[nH]c2ccccc12)C(=O)NCC(=O)O` (stereo not shown) [Compound 170] was tested, and the “IC50 for the inhibition” value was greater than 10 mg/L.
With `CC(C)CC(NC(=O)C(Cc1ccc(-c2ccccc2)cc1)NC(=O)C(=O)Cc1c[nH]c2ccccc12)C(=O)NCC(=O)O` (stereo not shown) [Compound 171] the “IC50 for the inhibition” value was greater than 10 mg/L.
`CC(C)CC(NC(=O)C(CC1CCCCC1)NC(=O)C(=O)Cc1c[nH]c2ccccc12)C(=O)NC(C(=O)O)C(C)C` (stereo not shown) [Compound 172] was tested, and the “IC50 for the inhibition” value was greater than 10 mg/L.
With `CC(C)CC(NC(=O)C(Cc1cccnc1)NC(=O)C(=O)Cc1c[nH]c2ccccc12)C(=O)NC(C(=O)O)C(C)C` (stereo not shown) [Compound 173] the “IC50 for the inhibition” value was greater than 10 mg/L.
For `CCCCC(NC(=O)C(CC(C)C)NC(=O)C(Cc1ccc(-c2ccccc2)cc1)NC(=O)C(=O)Cc1c[nH]c2ccccc12)C(=O)O` (stereo not shown) [Compound 174], the “IC50 for the inhibition” value was 5 mg/L.
`CC(C)CC(NC(=O)C(Cc1ccc(-c2ccccc2)cc1)NC(=O)C(=O)Cc1c[nH]c2ccccc12)C(=O)NC(Cc1ccccc1)C(=O)O` (stereo not shown) [Compound 175] was tested, and the “IC50 for the inhibition” value was greater than 10 mg/L.
`CC(C)CC(NC(=O)C(Cc1ccc(-c2ccccc2)cc1)NC(=O)C(=O)Cc1c[nH]c2ccccc12)C(=O)NC(CC(=O)O)C(=O)O` (stereo not shown) [Compound 176] was tested, and the “IC50 for the inhibition” value was 1 mg/L.
`CCCCC(NC(=O)C(CC(C)C)NC(=O)C(Cc1ccc2ccccc2c1)NC(=O)C(=O)Cc1c[nH]c2ccccc12)C(=O)O` (stereo not shown) [Compound 178] was tested, and the “IC50 for the inhibition” value was greater than 10 mg/L.
With `CC(C)CC(NC(=O)C(Cc1ccc2ccccc2c1)NC(=O)C(=O)Cc1c[nH]c2ccccc12)C(=O)NC(Cc1ccccc1)C(=O)O` (stereo not shown) [Compound 179] the “IC50 for the inhibition” value was greater than 10 mg/L.
In the case of `CC(C)CC(NC(=O)C(Cc1ccc2ccccc2c1)NC(=O)C(=O)Cc1c[nH]c2ccccc12)C(=O)NC(CC(=O)O)C(=O)O` (stereo not shown) [Compound 180], the “IC50 for the inhibition” value is reported as 5 mg/L.
In the case of `CC(C)CC(NC(=O)C(=O)Cc1c[nH]c2ccccc12)C(=O)NC(Cc1ccccc1)C(=O)O` (stereo not shown) [Compound 182], the “IC50 for the inhibition” value is reported as greater than 10 mg/L.
In the case of `CC(C)CC(NC(=O)CNC(=O)C(=O)Cc1c[nH]c2ccccc12)C(=O)NCC(=O)O` (stereo not shown) [Compound 184], the “IC50 for the inhibition” value is reported as greater than 10 mg/L.
With `CC(C)CC(NC(=O)C(Cc1ccc(-c2ccccc2)cc1)NC(=O)C(=O)Cc1c[nH]c2ccccc12)C(=O)NC(CC(N)=O)C(=O)O` (stereo not shown) [Compound 185] the “IC50 for the inhibition” value was 5 mg/L.
With `CC(C)CC(NC(=O)C(Cc1ccc(-c2ccccc2)cc1)NC(=O)C(=O)Cc1c[nH]c2ccccc12)C(=O)NC(CCC(N)=O)C(=O)O` (stereo not shown) [Compound 186] the “IC50 for the inhibition” value was greater than 10 mg/L.
`CC(C)CC(NC(=O)C(Cc1ccc(-c2ccccc2)cc1)NC(=O)C(=O)Cc1c[nH]c2ccccc12)C(=O)NC(Cc1ccc(-c2ccccc2)cc1)C(=O)O` (stereo not shown) [Compound 187] was tested, and the “IC50 for the inhibition” value was greater than 10 mg/L.
`CC(C)CC(NC(=O)C(Cc1ccc(-c2ccccc2)cc1)NC(=O)C(=O)Cc1c[nH]c2ccccc12)C(=O)NCCC(=O)O` (stereo not shown) [Compound 188] was tested, and the “IC50 for the inhibition” value was 5 mg/L.
With `CC(C)CC(NC(=O)C(Cc1ccc(-c2ccccc2)cc1)NC(=O)C(=O)Cc1c[nH]c2ccccc12)C(=O)NC(Cc1ccc(-c2ccccc2)cc1)C(=O)O` (stereo not shown) [Compound 189] the “IC50 for the inhibition” value was greater than 10 mg/L.
`CC(C)CC(NC(=O)C(Cc1ccc(-c2ccccc2)cc1)NC(=O)C(=O)Cc1c[nH]c2ccccc12)C(=O)NC(CCCNC(=N)N)C(=O)O` (stereo not shown) [Compound 191] showed an IC50 of 4.31 µM.
`CC(C)CC(NC(=O)C(Cc1ccc(-c2ccccc2)cc1)NC(=O)C(=O)Cc1c[nH]c2ccccc12)C(=O)NC(Cc1cccnc1)C(=O)O` (stereo not shown) [Compound 192] was tested, and the “IC50 for the inhibition” value was 3 mg/L.
For `CC(C)CC(NC(=O)C(Cc1ccc(-c2ccccc2)cc1)NC(=O)C(=O)Cc1c[nH]c2ccccc12)C(=O)NC(CCCCN)C(=O)O` (stereo not shown) [Compound 193], the “IC50 for the inhibition” value was greater than 10 mg/L.
With `CC(C)CC(NC(=O)C(Cc1ccc(-c2ccccc2)cc1)NC(=O)C(=O)Cc1c[nH]c2ccccc12)C(=O)NC(C(=O)O)c1ccccc1` (stereo not shown) [Compound 194] the “IC50 for the inhibition” value was greater than 10 mg/L.
In the case of `CC(C)CC(NC(=O)C(Cc1ccc(-c2ccccc2)cc1)NC(=O)C(=O)Cc1c[nH]c2ccccc12)C(=O)NC(CC(=O)O)C(=O)O` (stereo not shown) [Compound 195], the “IC50 for the inhibition” value is reported as greater than 10 mg/L.
In the case of `CC(C)CC(NC(=O)C(Cc1ccc(-c2ccccc2)cc1)NC(=O)C(=O)Cc1c[nH]c2ccccc12)C(=O)NC(Cc1c[nH]cn1)C(=O)O` (stereo not shown) [Compound 196], the “IC50 for the inhibition” value is reported as greater than 10 mg/L.
In the case of `CC(C)CC(NC(=O)C(Cc1ccc(-c2ccccc2)cc1)NC(=O)C(=O)Cc1c[nH]c2ccccc12)C(=O)NC(Cc1cscn1)C(=O)O` (stereo not shown) [Compound 198], the “IC50 for the inhibition” value is reported as greater than 10 mg/L.
With `CCCC(NC(=O)C(=O)Cc1c[nH]c2ccccc12)C(=O)NC(CC(C)C)C(=O)NC(C(=O)O)C(C)C` (stereo not shown) [Compound 199] the “IC50 for the inhibition” value was greater than 10 mg/L.
`CC(C)C[C@@H](NC(=O)[C@H](CC(=O)O)NC(=O)C(=O)Cc1c[nH]c2ccccc12)C(=O)N[C@H](C(=O)O)C(C)C` [Compound 200] gave an IC50 greater than 18.8 µM.
`CCCC(NC(=O)C(=O)Cc1c[nH]c2ccccc12)C(=O)NC(CC(C)C)C(=O)NC(C(=O)O)C(C)C` (stereo not shown) [Compound 201] was tested, and the “IC50 for the inhibition” value was greater than 10 mg/L.
With `CC(C)C(NC(=O)C(NC(=O)C(Cc1ccc(O)cc1)NC(=O)C(=O)Cc1c[nH]c2ccccc12)C(C)C)C(=O)O` (stereo not shown) [Compound 202] the “IC50 for the inhibition” value was greater than 10 mg/L.
`CC(C)C(NC(=O)C(NC(=O)C(NC(=O)C(=O)Cc1c[nH]c2ccccc12)C(C)C)C(C)C)C(=O)O` (stereo not shown) [Compound 203] was tested, and the “IC50 for the inhibition” value was greater than 10 mg/L.

From patent publication US6781000B1, “Alpha-ketoamide inhibitors of 20S proteasome” (CV Theurapeutics, Inc., priority 1998, dated 2004)
